Test results as given in PMC9161374 (Science Translational Medicine, 2022).
Several values for one entry are separate records, joined by “and”; a condition that tells them apart may be missing. Equal values may be shown once.

Key:
[1] = tested on: SARS-CoV-2 replicon system (pBAC-SARS-CoV-2-Replicon-Luc); assay: microbe, parasite or virus in culture; assay type: cell-based; conditions: for EC50 / EC90: Severe acute respiratory syndrome coronavirus 2, HEK-293T, 60 h; for EC50: read-out: EC50 (Confidence 95%), replicon; for EC90: read-out: EC90 (Confidence 95%), replicon
[2] = Permeability and efflux ratio in Caco-2 cells; assay type: in vitro ADME; conditions: human; for Papp A→B: AB; for Papp B→A: BA
Source text: ATV019, and ATV020 in Caco-2 cells.
Compound Caco-2 AB/BA (Papp (10-6 cm/s)) a Efflux ratio

Vero E6 cells = assay: CCK-8 cell viability assay; assay type: cell-based, African green monkey; conditions: individual replicate values, Fig.S4
Method: To investigate the effect of drugs on cell viability, Vero E6 cells were seeded in 96-well plates at a density of 20,000 cells per well and were treated with drugs at indicated concentrations (0, 0.01, 0.1, 1, 5, 10, 50, 75, 100, 200 μM) for 48 hours. Cell viability was tested by using Cell Counting Kit-8 (CCK-8, Bimake, B34302). The figures were plotted from cell viability percentage versus the drug concentrations using GraphPad Prism 6 software.
Fig. S4. Cytotoxicity assay of compounds in Vero E6 cells.
Vero E6 cells were plated in 96-well plates and treated with increasing concentrations
of each indicated compound, ranging from 0 to 200 μM, for 48 hours. Cell viability was
tested using Cell Counting Kit-8 (CCK-8). Data are presented as mean ± SD.

## CCC(=O)OC[C@H]1O[C@@](C#N)(c2ccc3c(N)ncnn23)[C@H](O)[C@@H]1O [ATV008]
[1]
  EC50: 815 nM
  EC90: 3140 nM

## CCC(C)[C@@H](N)C(=O)OC[C@H]1O[C@@](C#N)(c2ccc3c(N)ncnn23)[C@H](O)[C@@H]1O (stereo partly shown) [ATV024]
[1]
  EC50: 864 nM
  EC90: 1470 nM

## N#C[C@@]1(c2ccc3c(N)ncnn23)O[C@H](COC(=O)CC(F)(F)F)[C@@H](O)[C@H]1O [ATV016]
[1]
  EC50: 830 nM
  EC90: 1230 nM

## CCC(C)[C@H](N)C(=O)OC[C@H]1O[C@@](C#N)(c2ccc3c(N)ncnn23)[C@H](O)[C@@H]1O (stereo partly shown) [ATV023]
[1]
  EC50: 950 nM
  EC90: 2010 nM

## CC(C)[C@@H](N)C(=O)OC[C@H]1O[C@@](C#N)(c2ccc3c(N)ncnn23)[C@H](O)[C@@H]1O [ATV019]
[1]
  EC50: 974 nM
  EC90: 3810 nM
[2]
  efflux ratio: 2.47
  Papp A→B: 0.28 ×10⁻⁶ cm/s
  Papp B→A: 0.68 ×10⁻⁶ cm/s

## CCCC(=O)OC[C@H]1O[C@@](C#N)(c2ccc3c(N)ncnn23)[C@H](O)[C@@H]1O [ATV0009]
Vero E6 cells; 0.01 μM compound, 0.01 µM
  cell viability (% of control): 109.752 % of control and 112.521 % of control and 116.766 % of control
Vero E6 cells; 0.1 μM compound, 0.1 µM
  cell viability (% of control): 123.319 % of control and 106.337 % of control and 117.182 % of control
Vero E6 cells; 1 μM compound, 1 µM
  cell viability (% of control): 116.074 % of control and 120.089 % of control and 107.814 % of control
Vero E6 cells; 2 μM compound, 2 µM
  cell viability (% of control): 114.09 % of control and 114.182 % of control and 114.044 % of control
Vero E6 cells; 5 μM compound, 5 µM
  cell viability (% of control): 120.412 % of control and 124.38 % of control and 128.395 % of control
Vero E6 cells; 10 μM compound, 10 µM
  cell viability (% of control): 124.625 % of control and 120.839 % of control and 120.84 % of control
Vero E6 cells; 50 μM compound, 50 µM
  cell viability (% of control): 90.5983 % of control and 85.7996 % of control and 95.8178 % of control

## CC(C)C(=O)OC[C@H]1O[C@@](C#N)(c2ccc3c(N)ncnn23)[C@H](OC(=O)C(C)C)[C@@H]1OC(=O)C(C)C [ATV004]
[1]
  activity in the replicon system in comparison with parent GS-441524: improved the inhibitory activities
  EC50: 675 nM
  EC90: 2070 nM

## CC(=O)OC[C@H]1O[C@@](C#N)(c2ccc3c(N)ncnn23)[C@H](OC(C)=O)[C@@H]1OC(C)=O [ATV003]
[1]
  activity in the replicon system in comparison with parent GS-441524: did not substantially change the activity
  EC50: 829 nM
  EC90: 2320 nM

## CC(C)[C@H](N)C(=O)OC[C@H]1O[C@@](C#N)(c2ccc3c(N)ncnn23)[C@H](O)[C@@H]1O [ATV020]
[1]
  EC50: 2350 nM
  EC90: 13400 nM
[2]
  efflux ratio: 1.28
  Papp A→B: 0.17 ×10⁻⁶ cm/s
  Papp B→A: 0.22 ×10⁻⁶ cm/s

## N#C[C@@]1(c2ccc3c(N)ncnn23)O[C@H](COC(=O)C2CCCC2)[C@@H](O)[C@H]1O [ATV015]
[1]
  EC50: 713 nM
  EC90: 962 nM

## N#C[C@@]1(c2ccc3c(N)ncnn23)O[C@H](COC(=O)C2CC2)[C@@H](O)[C@H]1O [ATV012]
[1]
  EC50: 2170 nM
  EC90: 3510 nM

## CC(C)C(=O)Nc1ncnn2c([C@]3(C#N)O[C@H](COC(=O)C(C)C)[C@@H](OC(=O)C(C)C)[C@H]3OC(=O)C(C)C)ccc12 [ATV001]
[1]
  activity in the replicon system in comparison with parent GS-441524: decreased antiviral activities

## CCC(CC)COC(=O)[C@H](C)N[P@](=O)(OC[C@H]1O[C@@](C#N)(c2ccc3c(N)ncnn23)[C@H](O)[C@@H]1O)Oc1ccccc1 [RDV]
Vero E6 cells; 0.1 μM compound, 0.1 µM
  cell viability (% of control): 100.353 % of control and 102.354 % of control and 103.353 % of control
Vero E6 cells; 1 μM compound, 1 µM
  cell viability (% of control): 99.5206 % of control and 102.566 % of control and 112.154 % of control
Vero E6 cells; 2 μM compound, 2 µM
  cell viability (% of control): 97.4544 % of control and 95.2342 % of control and 99.3423 % of control
Vero E6 cells; 5 μM compound, 5 µM
  cell viability (% of control): 91.6526 % of control and 95.3187 % of control and 100 % of control
Vero E6 cells; 10 μM compound, 10 µM
  cell viability (% of control): 93.1472 % of control and 90.0169 % of control and 88.1839 % of control
Vero E6 cells; 20 μM compound, 20 µM
  cell viability (% of control): 90.3424 % of control and 95.3423 % of control and 99.3423 % of control
Vero E6 cells; 50 μM compound, 50 µM
  cell viability (% of control): 80.3835 % of control and 84.2922 % of control and 85.9278 % of control

## CC(=O)Nc1ncnn2c([C@]3(C#N)O[C@H](COC(C)=O)[C@@H](OC(C)=O)[C@H]3OC(C)=O)ccc12 [ATV002]
[1]
  activity in the replicon system in comparison with parent GS-441524: decreased antiviral activities

## CC(=O)OC[C@H]1O[C@@](C#N)(c2ccc3c(N)ncnn23)[C@H](O)[C@@H]1O [ATV007]
[1]
  EC50: 1960 nM
  EC90: 3730 nM
